Measurements taken from patent US11634381B2, “RUNX2 transcription factor inhibitors and uses thereof” (University of Maryland, Baltimore, priority 2015, dated 2023).

Key:
[1] = test system: MCF7-tet-off (-Doxy), MDA-231, MDA-468 and MCF7 cells; experiment: Tumorsphere assay; type: cell-based, human; details: 50 μM
Procedure: Single cell suspensions (100,000 cells/well) wereplatedin 6-well ultra-low attachment plates (Corning) with 5 ml of EGM-2 supplemented with bullet kit (Lonza) and 2% FBS. compound 1 (50 μM) was added at the day of the plating or 4 days after plating. Tumorspheres were continuously photographed for 18 days and counted at the final day. Spheres were counted at 9 fields per well and averaged from triplicate.

[2] = test system: RUNX2 transcriptional activity; experiment: Luciferase-promoter reporter assay of RUNX2 target genes; type: cell-based, human
Procedure: Cells were plated in 96-well plates (30,000 cells/well) and incubated overnight. Cells were co-transfected with indicated luciferase-reporter plasmids (25 ng/well) and pSV-Renilla-Luc (Promega) (15 ng/well) for 6 hrs and compound 1 ([…]) was further treated for 18-48 hrs. COX-2 (P2-274)-Luc (−170bp˜+104bp) and control plasmids (PXP2-Luc) were kindly provided byDr. Miguel A. Iñiguez (Universidad Autónoma de Madrid, Spain), and pNF-kb-Luc was from Dr. Hancai Dan (University of Maryland). Luciferase assay was performed using the Dual-Glo Luciferase Assay Systems as per manufacturer's recommendation (Promega).

BC cells = experiment: Glucose consumption and lactate production; type: cell-based, human
Procedure: For measurement of glucose level, cells (100,000/well) were plated in 24-well plates and incubated overnight. Cells were treated with compound 1 (50 μM) in phenol red-free growth medium and further incubated for 6 hrs or 24 hrs. The culture medium was collected and filtered through a 0.22 μm pore membrane. Glucose level in the medium was measured using Amplex Red Glucose/Glucose Oxidase Assay Kit (Invitrogen) as per manufacturer's instructions. For lactate level, cells were treated with compound 1 for 24 hrs, and the medium was washed and replaced with HEPES-buffered Krebs-Ringer solution (Boston BioProducts) supplemented with 10 mM Glucose. Cells were incubated for 30 min, and the medium was collected and filtered through a 0.22 μm pore membrane. Lactate level in the medium was measured using Lactate Assay Kit (Sigma-Aldrich) as per manufacturer's instructions. Cell growth assays using crystal violet staining were performed to verify equal number of cells and no significant difference was found in 24 hrs of compound 1 treatment (data not shown).

[3] = test system: MCF7-tet-off-Luc (-Doxy) and 231-Luc cells; experiment: In vivo lung metastasis assay (BLI); design: species or system NSG mice; details: 10 mg/kg
Procedure: For in vivo lung metastasis assay, MCF7-tet-off-Luc cells were grown for 3 days in the absence of Doxycyclin (−Doxy) and injected into the tail vein of the 8 week-old female NSG mice (1×10^6 cells/200 μl of PBS). After inoculation, the mice were randomly assigned to vehicle control and treatment groups. Vehicle (10% DMSO/90% PBS) and compound 1 (10 mg/kg) were injected i.p. 2 hrs after inoculation. The retention of the cells in the lung was monitored by noninvasive bioluminescence imaging for 24 hrs. For luciferase detection, 150 mg/mL D-luciferin (Caliper Life Sciences) in PBS was injected i.p. before imaging. Photometric measurement of metastasis was done by living Image software (Xenogen). In separate groups of mice, 231-Luc cells (1×10^6/200 μl of PBS) were injected, and the metastasis burden in the lung was quantified for 3 weeks.

sE-Cad = sE-Cad production by Western blot; type: cell-based, human
Procedure: MCF7 cells were grown to subconfluence in the presence or absence of doxycycline for 72 hr in full media as described above. Cells were then treated in minimal DMEM (Sigma, D5030) containing 0.1% BSA, 1% L-glutamine, 2% Tet-Approved FBS, and 1 mM glucose for 16 hours followed by treatment with 2 ng/mL TGFβ (R&D Systems, 240-B-002) for 48 hours in the presence or absence of EGTA to examine sE-Cad expression levels, TAZ localization, and HER2 expression levels. Cells were washed with PBS and scraped from plates. Cytoplasmic and nuclear lysates were obtained using the Low/High Salt extraction method. Cytoplasmic extracts were obtained by resuspending cells in NP40 containing Hypotonic Buffer (10 mM HEPES pH 7.4, 1.5 mM MgCl2, 10 mM KCI, 0.5% NP40) followed by a 30 min incubation on ice and centrifiugation. Nuclear extracts were obtained by resuspending the nuclear pellet in an equal volume of low salt buffer (10 mM HEPES, 25% glycerol, 1.5 mM MgCl2, 20 mM KCI, 0.2 mM EDTA) followed by high salt buffer (10 mM HEPES, 25% glycerol, 1.5 mM MgCl2, 800 mM KCl, 0.2 mM EDTA) followed by vortexing, 30 min incubation on ice, another vortex, and centrifugation. Samples were resolved on 4-12% Bis-Tris polyacrylamide gradient gels (Invitrogen) and transferred to PVDF membranes (Millipore). […] Protein levels were normalized to actin and quantified using NIH Image-J software.
To assay for sE-Cad levels, MCF7 Tet.OFF cells were grown in the absence or presence of doxycycline for 3 days and then transfected with TAZ siRNA #1 using Lipofectamine-2000. […] After 72 hours, nuclear and cytoplasmic extracts were obtained using the High/Low salt extraction method described above and analyzed for sE-Cad, TAZ, and RUNX2. Protein levels were normalized to actin and quantified using NIH Image-J software.
MCF7 Tet.OFF cells were pretreated in the absence or presence of doxycycline for 3 days. […] Nuclear and cytoplasmic extracts were obtained using High/Low salt extraction method and protein levels analyzed by Western blot (see above).

SMILES: O=C(O)C1C2C=CC(C2)C1C(=O)Nc1ccc(Cl)c(Cl)c1 (stereo not shown) [compound 1, 3-(N-(3,4-dichlorophenyl)carbamoyl)-5-norbornene-2-carboxylic acid]
- size and number of tumorspheres [1]: dramatically decreased
- MMP13 promoter activity ([2]; BT474 cells that do not express RUNX2, 48 hrs): did not attenuate
- repression of MMP13 promoter-Luc activity ([2]; MCF7-RUNX2 cells): about 50%
- MMP13 promoter activity ([2]; MDA-231 cells that express RUNX2, 48 hrs): decreased significantly
- promoter-Luc activities of control cells ([2]; T47D-Empty and MCF7-Empty): little effect
- promoter-luciferase activities of MMP13, VEGF and OC ([2]; T47D-RUNX2 and MCF7-RUNX2 cells, 48 hrs): dramatic decrease
- RUNX2-repressed p21 promoter activity ([2]; T47D-RUNX2 cells): reactivated
- p6xOSE2-Luc activity ([2]; T47D-RUNX2 cells): slightly but significantly reduced
- MMP13 promoter-Luc activity ([2]; T47D-RUNX2 cells, 2 μM): almost completely blocked
- lactate concentration (BC cells; 50 μM): significantly reduced
- glucose consumption (BC cells; MDA-231 cells): Slight but insignificant inhibition
- glucose level in the medium (BC cells; RUNX2-expressing MCF7 and T47D, MCF7 and MDA-468 cells, 6 hrs and 24 hrs): increased
- body weight and general health ([3]; NSG mice): did not significantly decrease body weight
- colonization and outgrowth in the lung versus vehicle ([3]; 231-Luc cells, 3 weeks): significantly lower
- metastatic homing to the mouse lungs ([3]; MCF7-tet-off-Luc (-Doxy) cells): no influence
- lung retention of the cells ([3]; MCF7-tet-off-Luc (-Doxy) cells, 24 hrs): significantly reduced
- decrease in sE-Cad production (sE-Cad; RUNX2 negative cells (doxycycline+)): 2 fold
- decline of sE-Cad levels (sE-Cad; RUNX2 positive cells, 50 μM, by 72 hr): ~20 fold
- increase of sE-Cad production (sE-Cad; RUNX2 positive cells, 50 μM, first 24 hr): 3.5 fold
